The subject of assay [1] is Neuro2A cells treated with A-beta (O). Nature of the assay: Rescue of amyloid-beta oligomer induced cytotoxicity in Neuro 2A cells (CellTiter-Glo). Conditions: Mus musculus, N2a, compound 1 uM, A-beta (O) together with compound 48 hr, read-out: % viability vs. untreated. The assay is classed as cell-based. As to the method:
Preparation of amyloid-beta oligomer (A-beta (O)): Synthetic wild type A-beta (1-42) was purchased from American Peptide, and first dissolved with hexafluoroisopropanol (HFIP), then dried in the blowing tissue culture hood overnight to form a film in the eppendorf tube. The A-beta peptide film was first resuspended with DMSO to a concentration of 5 mM, further diluted with DMEM containing N2 supplement (Invitrogen) to achieve a concentration of 100 μM, and then sonicated in room temperature water bath for 10 minutes. The 100 μM peptide solution was then incubated at 4° C. for 24 hr and thoroughly vortexed before applied to cells.
Mouse neuroblastoma Neuro2A cells were plated in 96-well plates and cultured in DMEM supplemented with 10% FBS for 24 hr. […] At the end of incubation, cells were harvested and subjected to viability assay using CellTiter-Glo Luminescent Cell Viability Assay Kit (Promega). The data for each treatment was calculated as average of 4 replicates and normalized to that of A-beta (O) treated only. Compound ID numbers in table refer to structures in Table 1 and Table 2.
Background: In ATP-based viability assays light output follows the ATP content of the culture.

Assay [2] concerns HSP70. Nature of the assay: HSP70 levels in Neuro 2A cells by ELISA. The assay is classed as cell-based, mouse. Conditions: 10 uM compound for 48 hrs, then GGTI-298 24 hrs. The protocol: Mouse neuroblastoma 2a cells were cultured in DMEM with 10% FBS for 24 hrs. […] After 24 hrs cells were harvested and lysates were prepared and analyzed by ELISA for HSP70. Compound ID numbers in table refer to structures in Table 1 and Table 2.
Background: In an ELISA, binding on a coated surface is turned into a signal by an enzyme label.

The test system of assay [3] is Sprague-Dawley rats injected with Kainic acid. Nature of the assay: Kainic acid induced neurodegeneration and seizure in rats (Example 21). The assay is classed as in vivo, rat. Conditions: oral. An excerpt: Seizure behaviors were observed and scored (Ref. R. J. Racine, Modification of seizure activity by electrical stimulation: II. Motor seizure, Electroencephalogr. Clin. Neurophysiol. 32 (1972) 281-294. Modifications were made for the methods). Brain tissues of rats were sectioned on histology slides, and neurons in hippocampus tissues were stained by Nissl. Neurons damaged by Kainic acid and behavior scores were quantified.

Assay [4] relates to Mouse Neuro2A neuroblastoma cells. Nature of the assay: Neuro2A cells with neurites after GGTI-298 (Example 16). The assay is classed as cell-based. Conditions: 10 μM, 48 hrs. As to the method:
Mouse Neuro2A neuroblastoma cells were cultured in DMEM supplemented with 10% FBS for 24 hrs. […] Then differentiation was induced by retinoic acid in DMEM supplemented with 2% FBS. The cell culture was incubated with a Geranylgeranyl Transferase inhibitor, GGTI-298. […]

Another assay has as its system Rap1. Nature of the assay: Prenylation of Rap1 in Neuro2A cells with GGTI-298 (western blot). The assay is classed as cell-based, mouse. Conditions: 100 nM; percentage of control treatments (GGTI only). As to the method: Mouse neuroblastoma Neuro2A cells were cultured in DMEM supplemented with 10% FBS for 24 hrs. The cells were treated with 102GGA derivative compounds for 24 hrs first before GGTase inhibitor GGTI-298 was added to the culture medium for additional 24 hr incubation. […] Both un-prenylated and total Rap1 protein bands were quantified using Image J and normalized to their respective loading control GAPDH. The results for control and each compound treatment were calculated as the ratio of normalized un-prenylated Rap1 to total Rap1, and averaged from two biological repeats of one experiment. The final results were presented as a percentage of the control treatments (GGTI only) from the same batch experiment. The data shown in the chart were averaged from two repeats of one experiment and presented as the ratio of normalized un-prenylated Rap1 to total Rap1. Compound ID numbers in table refer to structures in Table 1 and Table 2.
In general terms: Immunoblotting shows a protein as a band on a membrane.

For assay [5], the system named is HSP70. Description: HSP70 expression in Neuro2A cells by western blot. The assay is classed as cell-based, mouse. Conditions: for HSP70 western signal (absence of compounds = 1.00): 48 hours, then GGTI-298. The protocol: Differentiation was induced and cells incubated with geranylgeranyl transferase I inhibitor, GGTI-298. Cells were harvested and lysates were prepared and analyzed by western blot for HSP70 and HSP90. Western signals in the absence of the compounds were normalized as 1.00.

The next assay concerns Neuro2A cells. Description: Neuro2A cells that extended neurites, with GGTI-298 (Example 18). The assay is classed as cell-based, mouse. Conditions: 0.1-1 μM, vehicle 0.0-0.20. The source says:
After differentiation was induced, cells that extended neurites were counted.

In assay [6] the test system is Murine neuro2A neuroblastoma cells. Description: Neurite outgrowth of neuro2A cells inhibited with GGTI-298 (Example 30). The assay is classed as cell-based, mouse. Conditions: for Median Counts of cells with neurite outgrowth: CNS-102 vs CNS-103 experiment (no inhibition 60.3, PBS 18.5); for Relative %: relative to uninhibited count. The protocol:
Differentiation was induced and cells incubated with geranylgeranyl transferase I inhibitor, GGTI-298. After 24 h digital images were taken and neurite outgrowth was quantified. The comparisons of the neuroprotective effect of these three compounds are shown below.
The estimated mean log10 counts, from five replicate wells for each treatment group were calculated by PROC GLM in SAS assuming a pooled estimate of variation.
The estimated mean log10 counts from five replicate wells for each treatment group were calculated by PROC GLM in SAS assuming a pooled estimate of variation.
Differences in mean log(counts) between treatments for each concentration were calculated using PROC GLM in SAS. The p-value given is for the comparison of the estimated difference to zero, the expected difference value for no treatment effect. The anti-log of the differences represent the estimated ratio of counts (relative effect on inhibition) and are tabulated below along with the lower and upper 95% confidence intervals.

The mark [7] stands for this setting: 10000 nM, CNS-102 vs CNS-103 experiment.

Data on four compounds can be found in patent US9045403B2 (Coyote Pharmaceuticals, Inc., priority 2012, dated 2015).

By viability is commonly meant a read-out of living cells in per cent, often relative to untreated cells. Regarding `CC(C)=CCC/C(C)=C/CC/C(C)=C/CC/C(C)=C/CCC(C)=NO` [Compound 103], the viability at 1 µM in assay [1] was found to be 128%.

For the compound `CC(C)=CCC/C(C)=C/CC/C(C)=C/COC(=S)NC1CC1` [Compound 9d, Cyclopropyl 2E, 6E-farnesyl thiocarbamate], the “HSP70 ELISA signal (absence of compound normalized as 1.00)” value in the assay on HSP70 [2] was found to be 0.95.

In the case of `CCC(=O)CC/C=C(\C)CC/C=C(\C)CCC=C(C)C` [Compound 102], the viability at 1 µM in assay [1] amounted to 140%.

On to `CC(=O)CC/C=C(/C)CC/C=C(\C)CC/C=C(\C)CCC=C(C)C` [CNS-103], for which the “Mean of Hippocampus CA3 neurons damaged (Arbitrary units)” value is on record as 8.16 Arbitrary units in assay [3] (12 mg/Kg rat) and 10.64 Arbitrary units in assay [3] (25 mg/Kg rat). Also, the “Mean of cell numbers (Arbitrary units)” value was 0.195 Arbitrary units in assay [4] and 0.20-0.45 Arbitrary units with Neuro2A cells. In addition, the “unprenylated/total RAP1 (%)” value in the assay with Rap1 amounted to 96%. The “HSP70 western signal (absence of compounds = 1.00)” value with HSP70 [5] (100 nM) was determined as 1.00; in the assay with HSP70 [5] (10 μM) it was 0.99. In addition, the “induction of HSP70 expression (in words)” value in the assay on HSP70 [5] (Neuro2A cells, western blot) is on record as “failed to induce expression of HSP70”. In addition, the “Median Counts of cells with neurite outgrowth” value in assay [6] (10 nM) was 26.7; in assay [6] (100 nM) it was 29.3; in assay [6] (1000 nM), 28.7; in assay [6] (10000 nM), 16.3. Further, the Relative % in assay [6] (10 nM, CNS-102 vs CNS-103 experiment) amounted to 44.3%; in assay [6] (100 nM, CNS-102 vs CNS-103 experiment), 48.6%; in assay [6] (1000 nM, CNS-102 vs CNS-103 experiment), 47.6%; in assay [6] (setting [7]) it was 27%. For the same compound, the Protection % in assay [6] (setting [7]) is listed as −5.3%. The maximum protection in assay [6] (CNS-102 vs CNS-103 experiment, FIG. 4B) is ~26%.
